Measured values from US9113629B2, “4-amino-6-(4-substituted-phenyl)-picolinates and 6-amino-2-(4-substituted-phenyl)-pyrimidine-4-carboxylates and their use as herbicides” (DOW AGROSCIENCES LLC, priority 2013, dated 2015).
Like-named read-outs stand apart in the source and are kept apart here.

Tests used:
[1] = system: Key Broadleaf Weed and Crop Species; assay: Post-emergent Test II herbicidal activity (Table 5); format: in vivo; details: post-emergence, 336 h, post-emergent, 14 days after application; for pest or weed control at 70 g/ha: 70 g ai/ha; for pest or weed control at 140 g/ha: 140 g ai/ha
Outline: (§1)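 Test species were raised 7–21 d under greenhouse conditions until reaching the first or second true leaf, sprayed with formulated compound at 187 L/ha, and kept subirrigated to avoid wash-off. Fourteen days later, damage was rated visually on a 0–100% scale against untreated plants.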

[2] = system: Key Grass and Sedge Weeds as well as Grass Crops; assay: Post-emergent Test II herbicidal activity (Table 6); format: in vivo; details: post-emergence, 336 h; for pest or weed control at 70 g/ha: application rate 70 g ai/ha; for pest or weed control at 140 g/ha: application rate 140 g ai/ha
Outline: as §1

[3] = ABUTH: velvetleaf (Abutilon theophrasti), read-out: Visual Growth Reduction (%) 14 Days After Application ABUTH
[4] = AMARE: redroot pigweed (Amaranthus retroflexus), read-out: Visual Growth Reduction (%) 14 Days After Application AMARE
[5] = BRSNN: oilseed-rape, canola (Brassica napus), read-out: Visual Growth Reduction (%) 14 Days After Application BRSNN
[6] = CHEAL: lambsquarters (Chenopodium album), read-out: Visual Growth Reduction (%) 14 Days After Application CHEAL
[7] = EPHHL: wild poinsettia (Euphorbia heterophylla), read-out: Visual Growth Reduction (%) 14 Days After Application EPHHL
[8] = HELAN: sunflower (Helianthus annuus), read-out: Visual Growth Reduction (%) 14 Days After Application HELAN
[9] = VIOTR: wild pansy (Viola tricolor), read-out: Visual Growth Reduction (%) 14 Days After Application VIOTR
[10] = CYPES: yellow nutsedge (Cyperus esculentus), read-out: Visual Growth Reduction (%) 14 Days After Application, CYPES
[11] = DIGSA: crabgrass (Digitaria sanguinalis), read-out: Visual Growth Reduction (%) 14 Days After Application, DIGSA
[12] = ECHCG: barnyardgrass (Echinochloa crus-galli), read-out: Visual Growth Reduction (%) 14 Days After Application, ECHCG
[13] = ORYSA: rice (Oryza sativa), read-out: Visual Growth Reduction (%) 14 Days After Application, ORYSA
[14] = SETFA: giant foxtail (Setaria faberi), read-out: Visual Growth Reduction (%) 14 Days After Application, SETFA
[15] = SORVU: grain sorghum (Sorghum vulgare), read-out: Visual Growth Reduction (%) 14 Days After Application, SORVU
[16] = ZEAMX: maize, corn (Zea mays), read-out: Visual Growth Reduction (%) 14 Days After Application, ZEAMX

C=Cc1c(N)nc(-c2ccc(C#N)cc2F)nc1C(=O)OC [Compound 98, Methyl 6-amino-2-(4-cyano-2-fluorophenyl)-5-vinylpyrimidine-4-carboxylate]
0 to 29%: pest or weed control at 70 g/ha [1, 3] | pest or weed control at 140 g/ha [1, 3] | pest or weed control at 70 g/ha [1, 4] | pest or weed control at 140 g/ha [1, 4] | pest or weed control at 70 g/ha [1, 5] | pest or weed control at 140 g/ha [1, 5] | pest or weed control at 70 g/ha [1, 6] | pest or weed control at 140 g/ha [1, 6] | pest or weed control at 70 g/ha [1, 7] | pest or weed control at 140 g/ha [1, 7] | pest or weed control at 70 g/ha [1, 8] | pest or weed control at 140 g/ha [1, 8] | pest or weed control at 70 g/ha [1, 9] | pest or weed control at 140 g/ha [1, 9] | pest or weed control at 70 g/ha ([2]; Triticum aestivum, TRZSS (wheat), read-out: Visual Growth Reduction (%) 14 Days After Application, TRZSS) | pest or weed control at 70 g/ha [2, 10] | pest or weed control at 140 g/ha [2, 10] | pest or weed control at 70 g/ha [2, 11] | pest or weed control at 140 g/ha [2, 11] | pest or weed control at 70 g/ha [2, 12] | pest or weed control at 140 g/ha [2, 12] | pest or weed control at 70 g/ha [2, 13] | pest or weed control at 140 g/ha [2, 13] | pest or weed control at 70 g/ha [2, 14] | pest or weed control at 140 g/ha [2, 14] | pest or weed control at 70 g/ha [2, 15] | pest or weed control at 140 g/ha [2, 15] | pest or weed control at 140 g/ha ([2]; TRZSS (wheat, Triticum aestivum), read-out: Visual Growth Reduction (%) 14 Days After Application, TRZSS) | pest or weed control at 70 g/ha [2, 16] | pest or weed control at 140 g/ha [2, 16]
